Some results are limits rather than exact numbers.

The target of test [1] is T1, PKCδ (Homo sapiens, UniProt Q05655).
T1 construct: purchased Enzo Life Sciences
On the set-up: method as in PMID 18829454. The following applies: previously reported; cited from earlier work.

Test [2] deals with CAK. Also noted: method as in PMID 18829454. The note with it: previously reported; cited from earlier work.
Test [3] concerns the target KDR (Homo sapiens, UniProt P35968). In words: Kinase profiling, single-dose in vitro kinase assay (Caliper Life Sciences). The note with it: read-out: Average % Inhibition KDR.
The target in test [4] is CHK1 (Homo sapiens, UniProt O14757). Described as above. The note with it: read-out: Average % Inhibition CHK1.
Test [5] has as its target BTK (Homo sapiens, UniProt Q06187). The test is described as above. The note with it: read-out: Average % Inhibition BTK.
The target in test [6] is SRC (Homo sapiens, UniProt P12931). The description is as above. The following applies: read-out: Average % Inhibition SRC.
Test [7] relates to PC3 cells. Also noted: method as in PMID 18829454. The note with it: 10 or 25 μM for six days; cited from earlier work.
Test [8] concerns the target p38a (Homo sapiens, UniProt Q16539). In words: Kinase profiling, single-dose in vitro kinase assay (Caliper Life Sciences). The note with it: read-out: Average % Inhibition p38a.
In test [9] the target is IRAK4 (Homo sapiens, UniProt Q9NWZ3). The test is described as above. The note with it: read-out: Average % Inhibition IRAK4.
Test [10] concerns the target SYK (Homo sapiens, UniProt P43405). The test is described as above. The following applies: read-out: Average % Inhibition SYK.
Test [11] concerns the target IGF1R (Homo sapiens, UniProt P08069). The test is described as above. The note with it: read-out: Average % Inhibition IGF1R.
Test [12] concerns the target ErbB4 (Homo sapiens, UniProt Q15303). The description is as above. The note with it: read-out: Average % Inhibition ErbB4.
For test [13], the target named is PKCγ (Homo sapiens, UniProt P05129). Described as above. The note with it: read-out: Average % Inhibition PKCγ.
The target in test [14] is PKCη (Homo sapiens, UniProt P24723). The test is described as above. The note with it: read-out: Average % Inhibition PKCη.
Test [15] concerns the target EGFR (Homo sapiens, UniProt P00533). Described as above. The note with it: read-out: Average % Inhibition EGFR.
Test [16] deals with Erk1 (Homo sapiens, UniProt P27361). The description is as above. The following applies: read-out: Average % Inhibition Erk1, 10 μM.
The target of test [17] is PDGFRα (Homo sapiens, UniProt P16234). The description is as above. The following applies: read-out: Average % Inhibition PDGFRα.
Test [18] has as its target T2, CAMKIIα (Homo sapiens, UniProt Q9UQM7).
T2 construct: purchased Enzo Life Sciences
On the set-up: method as in PMID 18829454. The following applies: previously reported; cited from earlier work.

In test [19] the target is PKG1β (Homo sapiens, UniProt Q13976). Nature of the test: Kinase profiling, single-dose in vitro kinase assay (Caliper Life Sciences). The note with it: read-out: Average % Inhibition PKG1β.
Test [20] concerns the target ABL (Homo sapiens, UniProt P00519). The description is as above. The following applies: read-out: Average % Inhibition ABL.
The target in test [21] is T1, PKCδ. In words: In vitro radiometric PKC kinase assay. Type of test: biochemical. As to the method: The PKC in vitro kinase assays were performed as described previously.
(§1) To determine whether the novel analogs retained this specificity, we tested the compounds against their ability to inhibit PKCα, -βI, -δ, and CAMKIIα in in vitro radiometric kinase activity assays.
Inhibition of PKCα (A), PKCβI (B), PKCδ (C), or CAMKIIα (D) by each of the 5 analogs was determined at 100 nM, 1 μM, and 10 μM concentrations. […] Data are the mean ± S.E.M. of three independent experiments. Statistical significance was determined using the unpaired t-test. ns, not statistically significant; *, p < 0.05; **, p < 0.01; ***, p < 0.001.

Test [22] deals with T2, CAMKIIα. Nature of the test: In vitro radiometric CAMK kinase assay. Type of test: biochemical. The protocol:
In vitro radiometric kinase assays were conducted as previously described. Briefly, 1 μCi [γ-^32P] ATP (PerkinElmer Life Sciences), 70 μM ATP, 50 ng purified recombinant human PKD1 (Biomol International, Plymouth Meeting, PA), PKD2 (SignalChem, Richmond, BC, Canada), or CAMKIIα (Enzo Life Sciences) or 75 ng PKD3 (Enzo Life Sciences), and 2.5 μg syntide-2 (Sigma) in 50 μl kinase buffer containing 50 mM Tris-HCl, pH 7.5, 4 mM MgCl2, and 10 mM β-mercaptoethanol. For the CAMK assay, 0.5 mM CaCl2 and 30 ng/μl calmodulin were pre-incubated for 10 min on ice, and then added to each reaction mixture. The reaction was incubated at 30°C for 10 min, and 25 μl of the reaction mixture was then spotted onto Whatman P81 filter paper (Whatman Inc., Clifton, NJ). The filter papers were washed 3 times in 0.5% phosphoric acid, air-dried, and counted using a Beckman LS6500 multipurpose scintillation counter (Beckman).
as §1
Inhibition of PKCα (A), PKCβI (B), PKCδ (C), or CAMKIIα (D) by each of the 5 analogs was determined at 100 nM, 1 μM, and 10 μM concentrations. […] Statistical significance was determined using the unpaired t-test. ns, not statistically significant; *, p < 0.05; **, p < 0.01; ***, p < 0.001.

T1 sequence (Q05655 whole entry): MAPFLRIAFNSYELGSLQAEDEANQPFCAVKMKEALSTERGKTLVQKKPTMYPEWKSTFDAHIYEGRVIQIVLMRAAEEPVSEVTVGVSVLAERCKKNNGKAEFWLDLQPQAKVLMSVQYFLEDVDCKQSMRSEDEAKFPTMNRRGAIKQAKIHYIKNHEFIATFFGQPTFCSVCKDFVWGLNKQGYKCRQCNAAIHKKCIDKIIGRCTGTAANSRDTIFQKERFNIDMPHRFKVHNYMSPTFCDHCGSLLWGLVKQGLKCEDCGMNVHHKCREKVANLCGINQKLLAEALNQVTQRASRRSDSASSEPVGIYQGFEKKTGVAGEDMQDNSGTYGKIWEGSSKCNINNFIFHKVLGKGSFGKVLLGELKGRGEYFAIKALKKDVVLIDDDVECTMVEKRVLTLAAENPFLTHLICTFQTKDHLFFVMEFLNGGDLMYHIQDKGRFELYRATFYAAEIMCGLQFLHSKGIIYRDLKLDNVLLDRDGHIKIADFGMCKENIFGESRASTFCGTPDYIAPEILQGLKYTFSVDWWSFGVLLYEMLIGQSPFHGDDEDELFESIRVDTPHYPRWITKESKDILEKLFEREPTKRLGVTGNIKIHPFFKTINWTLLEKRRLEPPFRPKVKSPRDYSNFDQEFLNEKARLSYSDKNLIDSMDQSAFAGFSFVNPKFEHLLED
Erk1, sequence (P27361 whole entry): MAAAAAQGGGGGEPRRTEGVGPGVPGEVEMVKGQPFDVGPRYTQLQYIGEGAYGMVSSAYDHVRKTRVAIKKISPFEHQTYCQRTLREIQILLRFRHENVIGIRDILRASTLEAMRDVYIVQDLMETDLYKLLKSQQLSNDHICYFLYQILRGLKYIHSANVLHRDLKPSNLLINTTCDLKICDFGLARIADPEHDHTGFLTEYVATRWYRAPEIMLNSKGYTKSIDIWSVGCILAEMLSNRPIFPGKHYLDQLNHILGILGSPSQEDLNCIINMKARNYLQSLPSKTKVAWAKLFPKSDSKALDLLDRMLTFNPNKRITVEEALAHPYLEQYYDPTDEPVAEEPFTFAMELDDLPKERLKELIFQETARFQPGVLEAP
PKG1β, sequence (Q13976 1-686 isoform Q13976-2): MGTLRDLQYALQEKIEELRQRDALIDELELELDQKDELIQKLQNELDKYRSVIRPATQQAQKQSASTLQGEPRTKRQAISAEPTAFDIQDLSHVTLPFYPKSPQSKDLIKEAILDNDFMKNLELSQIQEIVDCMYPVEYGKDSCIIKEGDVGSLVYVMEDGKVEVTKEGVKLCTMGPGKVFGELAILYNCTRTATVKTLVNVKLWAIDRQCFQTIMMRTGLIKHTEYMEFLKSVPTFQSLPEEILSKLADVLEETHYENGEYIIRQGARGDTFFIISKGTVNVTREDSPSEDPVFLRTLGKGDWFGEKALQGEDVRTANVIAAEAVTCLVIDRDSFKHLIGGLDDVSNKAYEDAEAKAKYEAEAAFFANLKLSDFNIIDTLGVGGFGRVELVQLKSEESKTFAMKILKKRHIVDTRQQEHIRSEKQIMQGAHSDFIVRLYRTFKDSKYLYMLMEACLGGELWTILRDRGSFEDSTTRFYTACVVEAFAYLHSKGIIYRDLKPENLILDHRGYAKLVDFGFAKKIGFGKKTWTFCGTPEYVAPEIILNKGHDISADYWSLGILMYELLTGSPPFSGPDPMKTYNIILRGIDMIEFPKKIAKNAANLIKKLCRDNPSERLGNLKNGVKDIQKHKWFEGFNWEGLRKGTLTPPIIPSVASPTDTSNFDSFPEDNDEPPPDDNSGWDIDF
p38a, sequence (Q16539 whole entry): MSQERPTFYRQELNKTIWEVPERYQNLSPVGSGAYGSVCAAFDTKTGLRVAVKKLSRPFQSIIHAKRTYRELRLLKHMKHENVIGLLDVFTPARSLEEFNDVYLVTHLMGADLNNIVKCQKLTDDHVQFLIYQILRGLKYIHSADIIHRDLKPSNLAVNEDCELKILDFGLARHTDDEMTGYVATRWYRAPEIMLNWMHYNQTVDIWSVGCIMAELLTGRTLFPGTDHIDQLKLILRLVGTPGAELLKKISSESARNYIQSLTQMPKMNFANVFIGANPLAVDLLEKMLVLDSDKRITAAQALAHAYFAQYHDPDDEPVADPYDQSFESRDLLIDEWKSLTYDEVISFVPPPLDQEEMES
ErbB4, sequence (Q15303 26-1308): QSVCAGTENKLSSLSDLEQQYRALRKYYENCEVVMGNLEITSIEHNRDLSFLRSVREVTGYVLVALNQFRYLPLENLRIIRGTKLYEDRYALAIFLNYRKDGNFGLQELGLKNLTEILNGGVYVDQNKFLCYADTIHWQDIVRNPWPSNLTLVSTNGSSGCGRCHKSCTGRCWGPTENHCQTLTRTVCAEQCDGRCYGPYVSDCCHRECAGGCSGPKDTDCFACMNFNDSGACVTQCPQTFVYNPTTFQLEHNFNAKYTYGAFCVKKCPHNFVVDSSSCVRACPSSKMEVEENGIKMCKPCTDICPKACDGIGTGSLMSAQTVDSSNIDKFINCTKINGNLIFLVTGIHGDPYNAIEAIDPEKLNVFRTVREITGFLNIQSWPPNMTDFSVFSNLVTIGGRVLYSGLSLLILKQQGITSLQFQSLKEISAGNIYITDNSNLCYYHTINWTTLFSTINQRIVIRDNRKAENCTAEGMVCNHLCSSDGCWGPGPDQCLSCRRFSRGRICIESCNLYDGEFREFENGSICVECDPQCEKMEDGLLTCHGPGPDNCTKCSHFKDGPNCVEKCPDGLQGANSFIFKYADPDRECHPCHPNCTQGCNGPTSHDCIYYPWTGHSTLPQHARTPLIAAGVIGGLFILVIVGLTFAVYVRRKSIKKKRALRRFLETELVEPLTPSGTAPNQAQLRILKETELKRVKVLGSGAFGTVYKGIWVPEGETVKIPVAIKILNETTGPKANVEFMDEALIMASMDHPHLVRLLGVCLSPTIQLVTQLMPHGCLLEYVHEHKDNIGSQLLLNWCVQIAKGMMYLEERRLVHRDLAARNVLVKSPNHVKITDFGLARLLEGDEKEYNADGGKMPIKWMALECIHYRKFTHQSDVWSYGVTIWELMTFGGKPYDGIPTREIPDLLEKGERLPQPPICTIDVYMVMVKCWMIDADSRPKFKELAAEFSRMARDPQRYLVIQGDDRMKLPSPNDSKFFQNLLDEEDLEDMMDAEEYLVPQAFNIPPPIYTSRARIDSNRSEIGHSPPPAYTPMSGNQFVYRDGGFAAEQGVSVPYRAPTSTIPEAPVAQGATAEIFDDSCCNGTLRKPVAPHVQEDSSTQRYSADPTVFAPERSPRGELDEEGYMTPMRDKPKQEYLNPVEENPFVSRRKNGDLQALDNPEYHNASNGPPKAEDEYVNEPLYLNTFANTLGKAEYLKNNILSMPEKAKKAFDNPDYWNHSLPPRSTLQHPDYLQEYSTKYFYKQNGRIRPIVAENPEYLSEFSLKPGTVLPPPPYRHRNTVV
PDGFRα, sequence (P16234 24-1089): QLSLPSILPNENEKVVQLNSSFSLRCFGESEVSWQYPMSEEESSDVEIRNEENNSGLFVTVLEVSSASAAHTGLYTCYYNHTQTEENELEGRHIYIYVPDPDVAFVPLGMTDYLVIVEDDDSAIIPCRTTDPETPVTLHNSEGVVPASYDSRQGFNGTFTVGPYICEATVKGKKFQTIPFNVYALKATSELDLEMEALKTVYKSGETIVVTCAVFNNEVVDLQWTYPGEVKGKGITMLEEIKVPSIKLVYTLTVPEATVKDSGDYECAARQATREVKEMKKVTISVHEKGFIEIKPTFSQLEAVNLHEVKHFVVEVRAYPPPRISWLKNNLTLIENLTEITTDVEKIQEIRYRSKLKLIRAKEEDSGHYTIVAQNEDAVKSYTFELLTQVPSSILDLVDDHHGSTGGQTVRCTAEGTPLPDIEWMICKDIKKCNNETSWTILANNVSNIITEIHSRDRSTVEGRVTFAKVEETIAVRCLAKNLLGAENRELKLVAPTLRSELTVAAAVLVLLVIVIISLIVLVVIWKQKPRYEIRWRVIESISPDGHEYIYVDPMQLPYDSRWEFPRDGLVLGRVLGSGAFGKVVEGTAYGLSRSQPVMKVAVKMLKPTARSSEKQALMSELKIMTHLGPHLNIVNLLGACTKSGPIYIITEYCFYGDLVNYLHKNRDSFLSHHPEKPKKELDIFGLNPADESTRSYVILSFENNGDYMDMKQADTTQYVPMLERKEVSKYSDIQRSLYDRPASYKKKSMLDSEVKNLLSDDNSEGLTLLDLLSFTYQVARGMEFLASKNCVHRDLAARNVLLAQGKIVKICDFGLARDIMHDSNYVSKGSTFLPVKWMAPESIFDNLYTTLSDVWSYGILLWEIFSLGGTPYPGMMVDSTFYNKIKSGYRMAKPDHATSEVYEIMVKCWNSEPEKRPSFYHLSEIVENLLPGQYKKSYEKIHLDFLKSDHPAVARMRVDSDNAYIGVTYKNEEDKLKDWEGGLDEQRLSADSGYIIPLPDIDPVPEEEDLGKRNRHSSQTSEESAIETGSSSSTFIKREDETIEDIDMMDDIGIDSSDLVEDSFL
IRAK4, sequence (Q9NWZ3 whole entry): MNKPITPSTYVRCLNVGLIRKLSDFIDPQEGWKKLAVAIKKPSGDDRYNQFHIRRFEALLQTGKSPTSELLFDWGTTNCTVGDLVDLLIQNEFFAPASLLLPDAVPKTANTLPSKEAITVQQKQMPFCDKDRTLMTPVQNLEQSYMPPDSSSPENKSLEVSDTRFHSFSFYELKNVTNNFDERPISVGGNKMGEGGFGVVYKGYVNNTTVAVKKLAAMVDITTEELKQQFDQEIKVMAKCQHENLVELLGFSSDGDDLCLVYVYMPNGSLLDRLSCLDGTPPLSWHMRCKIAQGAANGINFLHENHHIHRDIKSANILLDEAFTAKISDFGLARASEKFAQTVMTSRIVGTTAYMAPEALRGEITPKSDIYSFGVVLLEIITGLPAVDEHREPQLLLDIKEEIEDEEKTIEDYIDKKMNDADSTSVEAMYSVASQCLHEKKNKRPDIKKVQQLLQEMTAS

As for `O=C1NCCCc2c1oc1ccc(O)cc21` [CID755673, 7-Hydroxy-2,3,4,5-tetrahydro-[1]benzoxolo[2,3-c]azepin-1-one], the “inhibition of PKCδ” value in test [1] is given as “did not inhibit”. Also, the “inhibition of CAK” value in test [2] is “did not inhibit”. Moreover, the inhibition at 10 µM in test [3] was 8%; in test [4], 7%; in test [5], -3%; in test [6], 7%; in [8], 2%; in test [9] it was 0%. For the same molecule, the inhibition at 10 µM in [10] is -8%; in [11] it was -2%; in test [12], 1%; in [13] it was 30%; in test [14], 40%; in test [15], 11%. Further, the inhibition at 10 µM was at least 50% in test [16], 5% in [17], 11% in [19] and 8% in test [20]. Also, in [7], the cell cycle arrest result was “caused G2/M phase cell cycle arrest”. Besides, in test [18], the “inhibition of CAMKIIα” value is listed as “did not inhibit”.

Turning to `O=C1NCCSc2c1sc1ccc(O)c(I)c21` [kb-NB165-31], the “inhibition of PKCδ (in words)” value in [21] is recorded as “significant inhibitory activity”. Besides, the inhibition at 10 µM in test [21] (10 μM, read-out: inhibitory activity toward PKCδ) is about 50%; in test [22] (10 μM), about 70%. Further, in test [22], the “inhibition of CAMKIIα (in words)” value is recorded as “significant inhibitory activity”.
